# Data taken from ChEMBL document CHEMBL4699558, “Lead optimization of 8-(methylamino)-2-oxo-1,2-dihydroquinolines as bacterial type II topoisomerase inhibitors” (Bioorg Med Chem, 2020).
# Test system: Staphylococcus aureus
# Test: Antibacterial activity against hospital-acquired Methicillin -resistant Staphylococcus aureus ATCC BAA-811 by CLSI method
# Type: functional
# Details: not given
row,SMILES,MIC
1,CNc1cc(F)cc2c(O)c(C(=O)Nc3ccc(C(=O)O)cc3)c(=O)[nH]c12,0.5 µg/mL
2,CNc1cc(F)cc2c(O)c(C(=O)Nc3ccc(C(=O)NS(=O)(=O)N(C)C)cc3)c(=O)[nH]c12,1 µg/mL

# Test system: Staphylococcus aureus
# Test: Antibacterial activity against Methicillin-resistant Staphylococcus aureus by CLSI method
# Type: functional
# Details: not given
SMILES,MIC50,MIC90
CNc1cc(F)cc2c(O)c(C(=O)Nc3ccc(C(=O)O)cc3)c(=O)[nH]c12,0.25 µg/mL,0.25 µg/mL

# Test system: Streptococcus anginosus
# Test: Antibacterial activity against Streptococcus anginosus ATCC 33397 by CLSI method
# Type: functional
# Details: not given
row,SMILES,MIC
1,CNc1cc(F)cc2c(O)c(C(=O)Nc3ccc(C(=O)O)cc3)c(=O)[nH]c12,0.03 µg/mL
2,CNc1cc(F)cc2c(O)c(C(=O)Nc3ccc(C(=O)NS(=O)(=O)N(C)C)cc3)c(=O)[nH]c12,0.12 µg/mL

# Test system: Enterococcus faecium
# Test: Antibacterial activity against vancomycin-resistant Enterococcus faecium ATCC 51559 by CLSI method
# Type: functional
# Details: not given
row,SMILES,MIC
1,CNc1cc(F)cc2c(O)c(C(=O)Nc3ccc(C(=O)O)cc3)c(=O)[nH]c12,0.015 µg/mL
2,CNc1cc(F)cc2c(O)c(C(=O)Nc3ccc(C(=O)NS(=O)(=O)N(C)C)cc3)c(=O)[nH]c12,0.03 µg/mL

# Target: Voltage-gated inwardly rectifying potassium channel KCNH2 (Homo sapiens, UniProt Q12809)
# Test: Inhibition of human ERG expressed in CHO cells by Q-patch clamp assay
# Details: not given
# Voltage-gated inwardly rectifying potassium channel KCNH2, sequence (Q12809 whole entry): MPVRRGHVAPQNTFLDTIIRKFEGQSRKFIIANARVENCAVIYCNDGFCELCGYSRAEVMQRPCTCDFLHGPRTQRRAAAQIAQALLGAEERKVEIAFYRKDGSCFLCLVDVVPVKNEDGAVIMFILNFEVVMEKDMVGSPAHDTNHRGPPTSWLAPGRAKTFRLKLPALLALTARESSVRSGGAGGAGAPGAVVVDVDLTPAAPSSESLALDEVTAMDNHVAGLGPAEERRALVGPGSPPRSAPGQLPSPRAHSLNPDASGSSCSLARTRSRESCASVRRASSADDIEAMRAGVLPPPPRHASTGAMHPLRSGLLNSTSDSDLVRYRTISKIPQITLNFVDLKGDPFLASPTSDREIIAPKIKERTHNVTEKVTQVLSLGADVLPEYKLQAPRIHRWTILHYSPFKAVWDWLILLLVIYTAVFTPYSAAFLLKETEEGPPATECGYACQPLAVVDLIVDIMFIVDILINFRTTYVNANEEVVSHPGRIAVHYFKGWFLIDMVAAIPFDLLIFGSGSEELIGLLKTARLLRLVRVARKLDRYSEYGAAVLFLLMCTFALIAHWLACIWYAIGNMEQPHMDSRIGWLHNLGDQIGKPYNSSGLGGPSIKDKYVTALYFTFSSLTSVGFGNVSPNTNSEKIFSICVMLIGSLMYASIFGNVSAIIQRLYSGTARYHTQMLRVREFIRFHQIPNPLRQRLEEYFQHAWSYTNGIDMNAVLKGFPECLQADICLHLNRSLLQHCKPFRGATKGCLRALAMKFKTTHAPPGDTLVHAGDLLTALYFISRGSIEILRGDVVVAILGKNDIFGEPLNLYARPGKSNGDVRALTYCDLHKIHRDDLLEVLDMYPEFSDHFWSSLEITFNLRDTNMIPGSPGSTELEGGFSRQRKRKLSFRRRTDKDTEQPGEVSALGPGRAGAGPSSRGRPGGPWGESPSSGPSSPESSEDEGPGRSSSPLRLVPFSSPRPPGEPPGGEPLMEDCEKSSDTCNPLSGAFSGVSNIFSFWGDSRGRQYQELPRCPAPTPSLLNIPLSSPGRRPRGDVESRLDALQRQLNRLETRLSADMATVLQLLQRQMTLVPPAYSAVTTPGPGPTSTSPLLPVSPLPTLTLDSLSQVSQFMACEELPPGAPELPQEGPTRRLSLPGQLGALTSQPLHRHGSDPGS
row,SMILES,IC50
1,CNc1cc(F)cc2c(O)c(C(=O)Nc3ccc(C(=O)O)cc3)c(=O)[nH]c12,> 30000 nM
2,CNc1cc(F)cc2c(O)c(C(=O)Nc3ccc(C(=O)NS(=O)(=O)N(C)C)cc3)c(=O)[nH]c12,> 30000 nM

# Test system: Staphylococcus aureus
# Test: Antibacterial activity against Staphylococcus aureus ATCC 29213 by CLSI method
# Type: functional
# Details: not given
row,SMILES,MIC
1,CNc1cc(F)cc2c(O)c(C(=O)Nc3ccc(C(=O)O)cc3)c(=O)[nH]c12,0.25 µg/mL

# Target: DNA topoisomerase 2-alpha (Homo sapiens, UniProt P11388)
# Test: Inhibition of human topoisomerase 2alpha
# Type: ADME
# Details: not given
# DNA topoisomerase 2-alpha, sequence (P11388 whole entry): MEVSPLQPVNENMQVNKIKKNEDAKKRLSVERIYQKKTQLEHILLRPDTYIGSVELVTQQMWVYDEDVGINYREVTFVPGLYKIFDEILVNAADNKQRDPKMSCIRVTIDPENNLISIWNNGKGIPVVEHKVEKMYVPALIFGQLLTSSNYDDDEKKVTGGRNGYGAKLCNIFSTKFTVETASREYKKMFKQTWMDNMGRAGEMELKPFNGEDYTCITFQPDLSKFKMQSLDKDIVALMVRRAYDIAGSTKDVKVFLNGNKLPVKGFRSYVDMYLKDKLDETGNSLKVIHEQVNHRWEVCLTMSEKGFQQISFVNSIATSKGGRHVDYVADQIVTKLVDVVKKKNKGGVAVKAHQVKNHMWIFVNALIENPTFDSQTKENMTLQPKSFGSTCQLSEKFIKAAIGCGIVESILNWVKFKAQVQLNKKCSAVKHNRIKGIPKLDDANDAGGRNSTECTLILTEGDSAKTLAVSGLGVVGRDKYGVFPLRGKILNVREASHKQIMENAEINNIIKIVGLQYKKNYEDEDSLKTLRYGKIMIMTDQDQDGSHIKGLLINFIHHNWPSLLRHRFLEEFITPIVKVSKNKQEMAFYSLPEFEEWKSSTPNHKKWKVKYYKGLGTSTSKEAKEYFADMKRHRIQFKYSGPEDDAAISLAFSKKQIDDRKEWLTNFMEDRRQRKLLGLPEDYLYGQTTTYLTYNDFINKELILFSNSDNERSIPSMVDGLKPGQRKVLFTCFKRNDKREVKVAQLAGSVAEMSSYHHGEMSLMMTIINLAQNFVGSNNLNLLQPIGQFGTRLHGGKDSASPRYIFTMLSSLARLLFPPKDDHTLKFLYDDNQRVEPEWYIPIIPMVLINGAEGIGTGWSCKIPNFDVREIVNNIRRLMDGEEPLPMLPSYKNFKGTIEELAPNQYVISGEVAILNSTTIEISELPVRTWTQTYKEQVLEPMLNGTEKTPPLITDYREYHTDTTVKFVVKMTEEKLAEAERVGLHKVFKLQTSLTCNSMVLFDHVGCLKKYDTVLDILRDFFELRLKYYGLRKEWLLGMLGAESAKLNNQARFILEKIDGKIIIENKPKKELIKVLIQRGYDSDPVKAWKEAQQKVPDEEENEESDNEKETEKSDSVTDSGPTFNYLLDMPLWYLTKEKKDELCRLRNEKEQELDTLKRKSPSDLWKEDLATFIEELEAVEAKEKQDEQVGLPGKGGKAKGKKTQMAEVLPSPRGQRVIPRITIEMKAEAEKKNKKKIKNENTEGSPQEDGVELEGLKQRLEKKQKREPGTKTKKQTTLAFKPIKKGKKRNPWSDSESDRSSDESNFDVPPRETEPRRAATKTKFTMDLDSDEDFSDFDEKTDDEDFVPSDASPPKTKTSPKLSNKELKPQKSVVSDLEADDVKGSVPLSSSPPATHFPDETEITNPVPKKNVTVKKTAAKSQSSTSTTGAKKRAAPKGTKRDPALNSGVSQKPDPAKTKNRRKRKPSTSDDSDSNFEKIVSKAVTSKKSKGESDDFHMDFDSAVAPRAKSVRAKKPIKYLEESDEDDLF
row,SMILES,IC50
1,CNc1cc(F)cc2c(O)c(C(=O)Nc3ccc(C(=O)O)cc3)c(=O)[nH]c12,> 100000 nM
2,CNc1cc(F)cc2c(O)c(C(=O)Nc3ccc(C(=O)NS(=O)(=O)N(C)C)cc3)c(=O)[nH]c12,20900 nM

# Target: T1, Cytoplasmic tyrosine-protein kinase BMX (Homo sapiens) (UniProt P51813)
# T1 sequence (whole entry): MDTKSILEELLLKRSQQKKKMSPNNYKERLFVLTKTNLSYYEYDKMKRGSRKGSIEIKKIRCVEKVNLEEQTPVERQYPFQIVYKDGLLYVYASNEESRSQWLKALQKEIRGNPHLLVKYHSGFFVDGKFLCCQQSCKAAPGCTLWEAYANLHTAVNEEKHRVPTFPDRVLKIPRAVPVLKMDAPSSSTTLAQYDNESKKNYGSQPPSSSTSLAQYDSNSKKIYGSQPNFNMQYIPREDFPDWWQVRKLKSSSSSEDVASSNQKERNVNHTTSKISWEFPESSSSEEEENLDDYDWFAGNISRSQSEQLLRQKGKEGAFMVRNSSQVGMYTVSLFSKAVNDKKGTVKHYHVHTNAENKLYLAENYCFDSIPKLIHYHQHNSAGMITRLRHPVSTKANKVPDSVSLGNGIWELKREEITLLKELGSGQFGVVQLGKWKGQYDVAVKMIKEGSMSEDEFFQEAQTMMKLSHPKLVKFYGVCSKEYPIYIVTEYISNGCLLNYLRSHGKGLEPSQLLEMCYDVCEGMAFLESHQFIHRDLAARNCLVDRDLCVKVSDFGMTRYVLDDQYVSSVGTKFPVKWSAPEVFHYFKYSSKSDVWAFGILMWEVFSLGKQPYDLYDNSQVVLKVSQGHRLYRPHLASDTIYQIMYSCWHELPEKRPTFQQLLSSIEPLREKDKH
# Test: Inhibition of recombinant BMX (unknown origin) at 10 uM using fluorescence-labeled peptide as substrate incubated for 15 mins followed by substrate addition and measured after 90 mins by electrophoretic mobility assay relative to control
# Details: time 105.0 min
row,SMILES,inhibition
1,CNc1cc(F)cc2c(O)c(C(=O)Nc3ccc(C(=O)O)cc3)c(=O)[nH]c12,29%

# Test system: Escherichia coli
# Test: Antibacterial activity against Escherichia coli ATCC 25922 by CLSI method
# Type: functional
# Details: not given
row,SMILES,MIC
1,CNc1cc(F)cc2c(O)c(C(=O)Nc3ccc(C(=O)O)cc3)c(=O)[nH]c12,1 µg/mL
2,CNc1cc(F)cc2c(O)c(C(=O)Nc3ccc(C(=O)NS(=O)(=O)N(C)C)cc3)c(=O)[nH]c12,1 µg/mL

# Target: DNA gyrase (Escherichia coli, UniProt P0AES4+P0AES6)
# Test: Inhibition of Escherichia coli DNA gyrase by measuring supercoiling activity incubated for 60 mins by fluorescence based assay
# Type: protein-complex assay
# Details: not given
row,SMILES,IC50
1,CNc1cc(F)cc2c(O)c(C(=O)Nc3ccc(C(=O)O)cc3)c(=O)[nH]c12,1.1 nM
2,CNc1cc(F)cc2c(O)c(C(=O)Nc3ccc(C(=O)NS(=O)(=O)N(C)C)cc3)c(=O)[nH]c12,2.66 nM

# Test system: Escherichia coli
# Test: Antibacterial activity against Escherichia coli ATCC 25922 in presence of PAbetaN by CLSI method
# Type: functional
# Details: not given
row,SMILES,MIC
1,CNc1cc(F)cc2c(O)c(C(=O)Nc3ccc(C(=O)NS(=O)(=O)N(C)C)cc3)c(=O)[nH]c12,≤ 0.015 µg/mL

# Test system: Prevotella melaninogenica
# Test: Antibacterial activity against Prevotella melaninogenica JCM6325 by CLSI method
# Type: functional
# Details: not given
row,SMILES,MIC
1,CNc1cc(F)cc2c(O)c(C(=O)Nc3ccc(C(=O)O)cc3)c(=O)[nH]c12,> 32 µg/mL

# Test system: not listed separately
# Test: Cytotoxicity against human HepG2 cells assessed as reduction in cell viability at 10 uM incubated for 48 hrs by CCK-8 assay
# Details: HepG2 cells
row,SMILES,"cytotoxicity at 48 h, 10 µM"
1,CNc1cc(F)cc2c(O)c(C(=O)Nc3ccc(C(=O)O)cc3)c(=O)[nH]c12,7.93%
2,CNc1cc(F)cc2c(O)c(C(=O)Nc3ccc(C(=O)NS(=O)(=O)N(C)C)cc3)c(=O)[nH]c12,3.61%

# Test system: Peptostreptococcus anaerobius
# Test: Antibacterial activity against Peptostreptococcus anaerobius ATCC 27337 by CLSI method
# Type: functional
# Details: not given
row,SMILES,MIC
1,CNc1cc(F)cc2c(O)c(C(=O)Nc3ccc(C(=O)O)cc3)c(=O)[nH]c12,0.06 µg/mL

# Test system: Fusobacterium nucleatum
# Test: Antibacterial activity against Fusobacterium nucleatum JCM8532 by CLSI method
# Type: functional
# Details: not given
row,SMILES,MIC
1,CNc1cc(F)cc2c(O)c(C(=O)Nc3ccc(C(=O)O)cc3)c(=O)[nH]c12,0.12 µg/mL

# Test system: not listed separately
# Test: Inhibition of Escherichia coli topoisomerase IV by measuring relaxation activity incubated for 30 mins by fluorescence based assay
# Details: not given
row,SMILES,IC50
1,CNc1cc(F)cc2c(O)c(C(=O)Nc3ccc(C(=O)O)cc3)c(=O)[nH]c12,62.9 nM
2,CNc1cc(F)cc2c(O)c(C(=O)Nc3ccc(C(=O)NS(=O)(=O)N(C)C)cc3)c(=O)[nH]c12,127 nM

# Test system: Enterococcus faecium
# Test: Antibacterial activity against Enterococcus faecium ATCC 35667 by CLSI method
# Type: functional
# Details: not given
row,SMILES,MIC
1,CNc1cc(F)cc2c(O)c(C(=O)Nc3ccc(C(=O)O)cc3)c(=O)[nH]c12,0.008 µg/mL
2,CNc1cc(F)cc2c(O)c(C(=O)Nc3ccc(C(=O)NS(=O)(=O)N(C)C)cc3)c(=O)[nH]c12,0.03 µg/mL

# Test system: Enterococcus faecalis
# Test: Antibacterial activity against Enterococcus faecalis ATCC 29212 by CLSI method
# Type: functional
# Details: not given
row,SMILES,MIC
1,CNc1cc(F)cc2c(O)c(C(=O)Nc3ccc(C(=O)O)cc3)c(=O)[nH]c12,0.002 µg/mL
2,CNc1cc(F)cc2c(O)c(C(=O)Nc3ccc(C(=O)NS(=O)(=O)N(C)C)cc3)c(=O)[nH]c12,0.015 µg/mL

# Test system: not listed separately
# Test: Cmax in ICR mouse at 100 mg/kg, sc measured upto 24 hrs by LC-MS analysis
# Type: ADME, organism-based
# Design: route subcutaneous, dose 100 mg/kg, time 24 hrs
# Details: in vivo
row,SMILES,Cmax
1,CNc1cc(F)cc2c(O)c(C(=O)Nc3ccc(C(=O)O)cc3)c(=O)[nH]c12,12400 ng/mL

# Test system: not listed separately
# Test: Half life in ICR mouse at 100 mg/kg, sc measured upto 24 hrs by LC-MS analysis
# Type: ADME, organism-based
# Details: in vivo
row,SMILES,half-life
1,CNc1cc(F)cc2c(O)c(C(=O)Nc3ccc(C(=O)O)cc3)c(=O)[nH]c12,6.79 h

# Test system: Clostridioides difficile
# Test: Antibacterial activity against Clostridioides difficile ATCC 700057 by CLSI method
# Type: functional
# Details: not given
row,SMILES,MIC
1,CNc1cc(F)cc2c(O)c(C(=O)Nc3ccc(C(=O)O)cc3)c(=O)[nH]c12,0.25 µg/mL

# Test system: not listed separately
# Test: Cytotoxicity against human HepG2 cells assessed as reduction in cell viability at 50 uM incubated for 48 hrs by CCK-8 assay
# Details: HepG2 cells
row,SMILES,"cytotoxicity at 48 h, 50 µM"
1,CNc1cc(F)cc2c(O)c(C(=O)Nc3ccc(C(=O)O)cc3)c(=O)[nH]c12,25.2%
2,CNc1cc(F)cc2c(O)c(C(=O)Nc3ccc(C(=O)NS(=O)(=O)N(C)C)cc3)c(=O)[nH]c12,38%

# Test system: Streptococcus pneumoniae
# Test: Antibacterial activity against Streptococcus pneumoniae ATCC 49619 by CLSI method
# Type: functional
# Details: not given
row,SMILES,MIC
1,CNc1cc(F)cc2c(O)c(C(=O)Nc3ccc(C(=O)O)cc3)c(=O)[nH]c12,0.015 µg/mL
2,CNc1cc(F)cc2c(O)c(C(=O)Nc3ccc(C(=O)NS(=O)(=O)N(C)C)cc3)c(=O)[nH]c12,0.06 µg/mL

# Test system: Staphylococcus aureus
# Test: Antibacterial activity against community-acquired Methicillin -resistant Staphylococcus aureus ATCC BAA-1556 by CLSI method
# Type: functional
# Details: not given
row,SMILES,MIC
1,CNc1cc(F)cc2c(O)c(C(=O)Nc3ccc(C(=O)O)cc3)c(=O)[nH]c12,0.25 µg/mL
2,CNc1cc(F)cc2c(O)c(C(=O)Nc3ccc(C(=O)NS(=O)(=O)N(C)C)cc3)c(=O)[nH]c12,1 µg/mL

# Test system: not listed separately
# Test: AUC (0 to 24 hrs) in ICR mouse at 100 mg/kg, sc measured upto 24 hrs by LC-MS analysis
# Type: ADME, organism-based
# Design: route subcutaneous, dose 100 mg/kg, time 24 hrs
# Details: in vivo
row,SMILES,AUC(0-t) at 24 h
1,CNc1cc(F)cc2c(O)c(C(=O)Nc3ccc(C(=O)O)cc3)c(=O)[nH]c12,16000 ng·h/mL

# Test system: Porphyromonas gingivalis
# Test: Antibacterial activity against Porphyromonas gingivalis JCM8525 by CLSI method
# Type: functional
# Details: not given
row,SMILES,MIC
1,CNc1cc(F)cc2c(O)c(C(=O)Nc3ccc(C(=O)O)cc3)c(=O)[nH]c12,0.25 µg/mL

# Test system: Streptococcus pneumoniae
# Test: Antibacterial activity against genotype penicillin-resistant Streptococcus pneumoniae by CLSI method
# Type: functional
# Details: not given
SMILES,MIC50,MIC90
CNc1cc(F)cc2c(O)c(C(=O)Nc3ccc(C(=O)O)cc3)c(=O)[nH]c12,0.03 µg/mL,0.06 µg/mL

# Test system: Enterococcus faecalis
# Test: Antibacterial activity against vancomycin-resistant Enterococcus faecalis ATCC 51575 by CLSI method
# Type: functional
# Details: not given
row,SMILES,MIC
1,CNc1cc(F)cc2c(O)c(C(=O)Nc3ccc(C(=O)O)cc3)c(=O)[nH]c12,0.002 µg/mL
2,CNc1cc(F)cc2c(O)c(C(=O)Nc3ccc(C(=O)NS(=O)(=O)N(C)C)cc3)c(=O)[nH]c12,0.015 µg/mL

# Test system: Haemophilus influenzae
# Test: Antibacterial activity against Haemophilus influenzae ATCC 43095 by CLSI method
# Type: functional
# Details: not given
row,SMILES,MIC
1,CNc1cc(F)cc2c(O)c(C(=O)Nc3ccc(C(=O)O)cc3)c(=O)[nH]c12,≤ 0.015 µg/mL
2,CNc1cc(F)cc2c(O)c(C(=O)Nc3ccc(C(=O)NS(=O)(=O)N(C)C)cc3)c(=O)[nH]c12,≤ 0.015 µg/mL

# Test system: Bacteroides fragilis
# Test: Antibacterial activity against Bacteroides fragilis ATCC 25285 by CLSI method
# Type: functional
# Details: not given
row,SMILES,MIC
1,CNc1cc(F)cc2c(O)c(C(=O)Nc3ccc(C(=O)O)cc3)c(=O)[nH]c12,8 µg/mL

# Test system: not listed separately
# Test: Tmax in ICR mouse at 100 mg/kg, sc measured upto 24 hrs by LC-MS analysis
# Type: ADME, organism-based
# Details: in vivo
row,SMILES,Tmax
1,CNc1cc(F)cc2c(O)c(C(=O)Nc3ccc(C(=O)O)cc3)c(=O)[nH]c12,0.25 h

# Test system: Enterococcus
# Test: Antibacterial activity against Vancomycin-resistant Enterococcus by CLSI method
# Type: functional
# Details: not given
SMILES,MIC50,MIC90
CNc1cc(F)cc2c(O)c(C(=O)Nc3ccc(C(=O)O)cc3)c(=O)[nH]c12,0.008 µg/mL,0.015 µg/mL
